Each structure is given as a SMILES string.

For this data set, the system named is Mus musculus. Description: Toxicity in po dosed Mus musculus (mouse). The note with it: in vivo. More on the design: unit not given here. It is filed as organism-based.
For the molecule `Br.CCN1C[C@]2(OC(=O)c3ccccc3NC(C)=O)CC[C@H](OC)[C@]34C1[C@@H](C[C@H]23)[C@@]1(O)C[C@H](OC)[C@H]2C[C@@H]4[C@]1(O)[C@H]2OC`, the logLD50 is reported as 0.92.

For `CCN1C[C@@]2(COC)[C@H]3[C@@H](OC)[C@@H]4C1[C@]3([C@@H](OC)C[C@H]2OC(C)=O)[C@@H]1C[C@]2(OC(C)=O)[C@@H](OC)C[C@@]4(OC(C)=O)[C@H]1[C@H]2OC(=O)c1ccccc1`, the logLD50 is 1.34.

As for `Br.COC[C@@]12CC[C@H](OC)[C@]34C([C@@H]([C@H](OC)[C@H]13)[C@]1(OC(C)=O)[C@H]3[C@@H](OC(=O)c5ccccc5)[C@](O)(C[C@H]34)[C@@H](OC)[C@@H]1O)N(C)C2`, the logLD50 was -0.27.

The molecule `COC[C@]12CN(C)C3[C@H]4[C@H](OC)[C@H]1[C@@]3([C@@H](OC)C[C@H]2O)[C@@H]1C[C@@]2(O)[C@H](OC(=O)c3ccccc3)[C@@H]1[C@]4(O)[C@@H](O)[C@@H]2OC` displayed a logLD50 of 1.32.

`CCN1C[C@]2(C)CC[C@H](O)[C@]34C1[C@@H](C[C@H]23)[C@@]1(O)C[C@H](OC)[C@H]2C[C@@H]4[C@@H]1[C@H]2O` [KARAKOLINE] showed a logLD50 of 1.71.

In the case of `COC[C@@]12CC[C@H](OC)[C@]34C([C@@H]([C@H](OC)[C@H]13)[C@]1(OC(C)=O)[C@H]3[C@@H](OC(=O)c5ccccc5)[C@](O)(C[C@H]34)[C@@H](OC)[C@@H]1O)N(C)C2`, the logLD50 was -0.33.

`CCN1C[C@@]2(COC)[C@H]3[C@@H](OC)[C@@H]4C1[C@]3([C@@H](OC)C[C@H]2OC(C)=O)[C@@H]1C[C@@]2(OC(C)=O)[C@H](OC(C)=O)[C@@H]1[C@]4(OC(C)=O)[C@@H](OC(C)=O)[C@@H]2OC` showed a logLD50 of 2.83.

In the case of `Br.CCN1C[C@]2(COC)[C@H](O)C[C@H](OC)[C@]34C1[C@@H]([C@H](OC)[C@H]23)[C@]1(OC(C)=O)[C@H]2[C@@H](OC(=O)c3ccccc3)[C@](O)(C[C@H]24)[C@@H](OC)[C@@H]1O`, the logLD50 is on record as -0.87.

`CCN1C[C@]2(COC)CC[C@H](O)[C@]34C1[C@@](O)([C@@H](OC)[C@H]23)[C@@]1(O)C[C@H](OC)[C@H]2C[C@@H]4[C@@H]1[C@H]2O` registered a logLD50 of 2.04.

Regarding `CCN1C[C@]2(COC)[C@H](O)C[C@H](OC)[C@]34C1[C@@H]([C@H](OC)[C@H]23)[C@@]1(OC(C)=O)C[C@H](OC)[C@@]2(O)C[C@@H]4[C@@H]1[C@H]2OC(=O)c1ccc(OC)c(OC)c1`, the logLD50 amounted to 2.56.

In the case of `Br.COC[C@]12CN(C)C3[C@H]4[C@H](OC)[C@H]1[C@@]3([C@@H](OC)C[C@H]2O)[C@@H]1C[C@@]2(O)[C@H](OC(=O)c3ccccc3)[C@@H]1[C@]4(O)[C@@H](O)[C@@H]2OC`, the logLD50 was 1.38.

On to `CCN1C[C@]2(COC)[C@H](O)C[C@H](OC)[C@]34C1[C@@H]([C@H](OC)[C@H]23)[C@]1(OC(C)=O)[C@H]2[C@@H](OC(=O)c3ccccc3)[C@](O)(C[C@]24O)[C@@H](OC)[C@@H]1O`, for which the logLD50 was -0.66.

For the molecule `CCN1C[C@@]2(COC)[C@H]3[C@@H](OC)[C@@H]4C1[C@]3([C@@H](OC)C[C@H]2OC(C)=O)[C@@H]1C[C@]2(OC(C)=O)[C@@H](OC)C[C@@]4(OC(C)=O)[C@H]1[C@H]2OC(C)=O`, the logLD50 came to 2.18.

Regarding `CCN1C[C@]2(COC(=O)c3ccccc3N3C(=O)C[C@H](C)C3=O)CC[C@H](OC)[C@@]34C1[C@@]1(OCO[C@@]15C[C@H](OC)[C@H]1C[C@@H]3[C@@H]5[C@H]1OC)[C@@H](OC)[C@H]24` [ELATINE], the logLD50 stood at 0.7.

`CCN1C[C@]2(COC(=O)c3ccccc3N3C(=O)C[C@H](C)C3=O)CC[C@H](OC)[C@]34C1[C@@](O)([C@@H](OC)[C@H]23)[C@@]1(O)C[C@H](OC)[C@H]2C[C@@H]4[C@@H]1[C@H]2OC` gave a logLD50 of 0.48.

As for `CCN1C[C@]2(COC)[C@H](O)C[C@H](OC)[C@]34C1[C@@H]([C@H](OC)[C@H]23)[C@]1(OC(C)=O)[C@H]2[C@@H](OC(=O)c3ccccc3)[C@](O)(C[C@H]24)[C@@H](OC)[C@@H]1O` (stereo in doubt; 1), the logLD50 is -0.92.

Molecule `CCN1C[C@@H]2CC[C@H](OC)[C@]34C1[C@@H](C[C@H]23)[C@@]1(O)C[C@@H](OC)[C@@]2(O)C[C@@H]4[C@@H]1[C@H]2OC(=O)c1ccccc1` gave a logLD50 of 1.45.

The molecule `Br.COC[C@@]12CC[C@H](OC)[C@]34C([C@@H]([C@H](OC)[C@H]13)[C@]1(O)[C@H]3[C@@H](OC(=O)c5ccccc5)[C@](O)(C[C@H]34)[C@@H](OC)[C@@H]1O)N(C)C2` registered a logLD50 of 1.41.

For the molecule `CCN1C[C@]2(COC)CC[C@H](OC)[C@]34C1[C@@H](C[C@H]23)[C@@]1(O)C[C@H](OC)[C@H]2C[C@@H]4[C@@H]1[C@H]2O`, the logLD50 was -0.94.

`COC[C@@]12CC[C@H](OC)[C@]34C([C@@H]([C@H](OC)[C@H]13)[C@]1(O)[C@H]3[C@@H](OC(=O)c5ccccc5)[C@](O)(C[C@H]34)[C@@H](OC)[C@@H]1O)N(C)C2` yielded a logLD50 of 1.36.

The molecule `CCN1C[C@@]2(COC)[C@H]3[C@@H](OC)[C@@H]4C1[C@]3([C@@H](OC)C[C@H]2OC(C)=O)[C@@H]1C[C@@]2(OC(C)=O)[C@H](OC(=O)c3ccccc3)[C@@H]1[C@]4(OC(C)=O)[C@@H](OC(C)=O)[C@@H]2OC` came in with a logLD50 of 2.1.

Molecule `CCN1C[C@]2(OC(=O)c3ccccc3NC(C)=O)CC[C@H](OC)[C@]34C1[C@@H](C[C@H]23)[C@@]1(O)C[C@H](OC)[C@H]2C[C@@H]4[C@]1(O)[C@H]2OC` displayed a logLD50 of 0.84.

As for `CCN1C[C@]2(COC)[C@H](O)C[C@H](OC)[C@]34C1[C@@H]([C@H](OC)[C@H]23)[C@]1(O)[C@H]2[C@@H](OC(=O)c3ccccc3)[C@](O)(C[C@H]24)[C@@H](OC)[C@@H]1O`, the logLD50 came out at 1.

In turn, `CCN1C[C@]2(O)CC[C@H](OC)[C@]34C1[C@@H](C[C@H]23)[C@@]1(O)C[C@H](OC)[C@H]2C[C@@H]4[C@]1(O)[C@H]2OC` displayed a logLD50 of 2.15.

`CCN1C[C@]2(COC)CC[C@H](O)[C@]34C1[C@@](O)([C@@H](OC)[C@H]23)[C@@]1(O)C[C@H](OC)[C@H]2C[C@@H]4[C@@H]1[C@H]2OC.Cl`: the logLD50 is listed as 2.07.

As to `Br.COC[C@]12CN(C)C3[C@H]4[C@H](OC)[C@H]1[C@@]3([C@@H](OC)C[C@H]2O)[C@@H]1C[C@@]2(O)[C@H](OC(=O)c3ccccc3)[C@@H]1[C@]4(OC(C)=O)[C@@H](O)[C@@H]2OC`, the logLD50 is recorded as -0.95.

`CCN1C[C@]2(COC)CC[C@H](O)[C@]34C1[C@@](O)([C@@H](OC)[C@H]23)[C@@]1(O)C[C@H](OC)[C@H]2C[C@@H]4[C@@H]1[C@H]2OC` [DELSOLINE] returned a logLD50 of 2.24.

On to `CCN1C[C@]2(COC)[C@H](O)C[C@H](OC)[C@]34C1[C@@H]([C@H](OC)[C@H]23)[C@@]1(OC(C)=O)C[C@H](OC)[C@@]2(O)C[C@@H]4[C@@H]1[C@H]2OC(=O)c1ccccc1`, for which the logLD50 is reported as -0.33.

Molecule `CCN1C[C@@]2(COC)[C@H]3[C@@H](OC)[C@@H]4C1[C@]3([C@@H](OC)C[C@H]2OC(C)=O)[C@@H]1C[C@]2(O)[C@@H](OC)C[C@@]4(OC(C)=O)[C@H]1[C@H]2OC(=O)c1ccccc1` had a logLD50 of 3.16.

In turn, `CCN1C[C@]2(C)CC[C@H](OC)[C@@]34C1[C@@]1(OCO[C@@]15C[C@H](OC)[C@H]1C[C@]3(O)[C@@H]5[C@H]1OC)[C@@H](OC(C)=O)[C@H]24` gave a logLD50 of 2.12.

The molecule `CCN1C[C@@]2(COC)[C@H]3[C@@H](OC)[C@@H]4C1[C@]3([C@@H](OC)C[C@H]2OC(C)=O)[C@@H]1C[C@@]2(O)[C@H](OC(=O)c3ccccc3)[C@@H]1[C@]4(OC(C)=O)[C@@H](O)[C@@H]2OC` showed a logLD50 of -0.4.

For `CCN1C[C@]2(COC)[C@H](O)C[C@H](OC)[C@]34C1[C@@H]([C@H](OC)[C@H]23)[C@@]1(O)C[C@H](OC)[C@@]2(O)C[C@@H]4[C@@H]1[C@H]2OC(=O)c1ccccc1`, the logLD50 stood at 2.15.

As to `CCN1C[C@]2(COC)[C@H](O)C[C@H](OC)[C@]34C1[C@@H]([C@H](OC)[C@H]23)[C@]1(OC(C)=O)[C@H]2[C@@H](OC(=O)c3ccccc3)[C@](O)(C[C@H]24)[C@@H](OC)[C@@H]1O` (stereo in doubt; 12), the logLD50 was -0.78.

In turn, `CCN1C[C@]2(OC(=O)c3ccccc3NC(C)=O)CC[C@H](OC)[C@]34C1[C@@H](C[C@H]23)[C@@]1(OC(C)=O)C[C@H](OC)[C@H]2C[C@@H]4[C@]1(OC(C)=O)[C@H]2OC` showed a logLD50 of 1.16.

In turn, `COC[C@]12CN(C)C3[C@H]4[C@H](OC)[C@H]1[C@@]3([C@@H](OC)C[C@H]2O)[C@@H]1C[C@@]2(O)[C@H](OC(=O)c3ccccc3)[C@@H]1[C@]4(OC(C)=O)[C@@H](OC)[C@@H]2O` came in with a logLD50 of -1.

`Br.CCN1C[C@]2(COC)[C@H](O)C[C@H](OC)[C@]34C1[C@@H]([C@H](OC)[C@H]23)[C@]1(O)[C@H]2[C@@H](OC(=O)c3ccccc3)[C@](O)(C[C@H]24)[C@@H](OC)[C@@H]1O` gave a logLD50 of 1.41.

The values are drawn from ChEMBL document CHEMBL3045930, “Study on the quantitative structuretoxicity relationships of aconitine compounds basing on PCA-ANN method” (Med Chem Res, 2013).
